Values of other authors, collected in patent US20050118266A1, “Sustained/controlled release solid formulation as a novel drug delivery system with reduced risk of dose dumping” (priority 2002, published 2005).

Conditions: according to Biopharmaceutics Classification System

Row | SMILES | BCS class | solubility (BCS category)
1 | O=C(O)Cc1ccccc1Nc1c(Cl)cccc1Cl [diclofenac sodium] | Class II | poorly soluble
2 | NCC1(CC(=O)O)CCCCC1 [gabapentin] |  | highly soluble
3 | CC[C@H](C)C(=O)O[C@H]1C[C@H](O)C=C2C=C[C@H](C)[C@H](CC[C@@H](O)C[C@@H](O)CC(=O)O)[C@H]21 [pravastatin sodium] |  | highly soluble
4 | CNC(=C[N+](=O)[O-])NCCSCc1ccc(CN(C)C)o1 [ranitidine] |  | highly soluble
5 | Cc1cccc(Nc2ccncc2S(=O)(=O)NC(=O)NC(C)C)c1 [torasemide] | Class I | highly soluble
